According to patent US20050232933A1, “CMV-IE1 peptides and method of use” (priority 2003, published 2005):
Where two headings read alike, the source gives them in different places.

What was measured:
[1] = tested on: CD8 human cells; conditions: HLA A*0201; (pN) = peptide number in the source; cited from earlier work
[2] = tested on: CD8 human cells; conditions: cited from earlier work; for Stimulatory grade, B: Khan et al. 2002 (ELISPOT): HLA A*0201
[3] = biological target: T1, HLA A*0201 molecule on T2 cells (Homo sapiens, UniProt P04439, D140Y/D185E/D98H/E176V/E277Q/G131W/G231S/I119V/I121R/I166T/I218V/L300P/L318F/N151K/N90K/P208A/P217A/Q86G/Q94H/R138H/R169H/T345S); assay type: binding
T1 construct: host or cells: T2 cells
Source text: T2 cells, ATCC accession no. CRL-1992, are defective for endogenous class I presentation, but peptide binding to the MHC molecule stabilizes its expression on the cell surface. The stabilized MHC molecule can be detected by flow cytometry with a monoclonal antibody to the HLA A*0201 molecule. T2 cells express HLA A*0201 but not the HLA DR and are class II MHC antigen negative. […] A293 cells are human embryonic kidney cells. A293-IE1 is a stably transfected human kidney cell line endogenously expressing the CMV-IE1 protein. All cells used in experiments were mycoplasma-free and were maintained in RPMI-1640 supplemented with 10% FBS, penicillin-streptomycin and 2 mM glutamine.
T2 cells are defective for endogenous class I presentation but the presence of peptide binding to the MHC molecule will stabilize its expression on the cell surface. The stabilized MHC molecule can be detected by flow cytometry using a monoclonal antibody to the HLA A-A*0201 molecule. Peptide sequences were selected using two algorithms for HLA peptide predicted motifs publicly available on the internet ([…] (Rammensee et al., Immunogenetics 50:213-219, 1999) and BIMAS).
The peptides were assayed on T2 cells for their ability to bind and stabilize the A2 molecules on the cell surface according to methods described in Gricks et al., Cancer Res. 61:5145-5152, 2001, with modifications. […] The level of stabilized HLA-A2 on the surface of the T2 cells was determined according to known methods using monoclonal antibody BB7.2, which specifically recognizes HLA A*0201 as described in BenMohamed et al., Hum. Immunol. 61:764-779, 2000 and Parham et al., Hum. Immunol. 3:277-299, 1981 and a FITC-labeled goat anti-mouse F(ab′)2. Fluorescence was detected with a FACSCalibur™ flowcytometer. Numbers in the peak channel were compared to control T2 cells that contained HLA mismatch B7 peptide or no peptide.
The results were expressed as fold increased fluorescence compared to the mean of no peptide and HLA mismatch B7 peptide.

[4] = tested on: CD8 human cells; experiment: Summary of stimulatory CMV IE1 HLA A*0201 restricted peptides, present report (Table I, A); assay type: cell-based
Source text: These mutations may contribute to the low incidence of response to individual IE1 peptides. The locations of putative mutations are underlined. See Frankenberg et al., Virology 295: 208-216, 2002. Typically, the mutations that would most dramatically affect the binding of an epitope into the MHC molecule are situated at the anchor site, amino acid positions p2 and p9 of a peptide. See Falk et al., Semin. Immunol. 15:81-94, 1993; Zaia et al., J. Virol. 75:2472-2474, 2001. The only peptide showing a p2-p9 unstable mutation site is IE1-315, first described by Retiere (J. Virol. 74:3948-3952, 2000) using a TNF release assay. […] See Khan et al., J. Infect. Dis. 185:1025-1034, 2002. However IE1-316, which contains possible mutations at site p1 and p8, was more frequently recognized in this same study (6 out of 18) in an IFN-γ elispot assay. IE1-297, possibly mutated at p1 and p5, is a strong candidate for CMV immune recognition as well, since 3 of 4 patient PBLs responded in an ICC (intracellular cytokine) assay. Therefore, despite the presence of point mutation sites in IE1 epitopes, provided the anchor sites are intact, IE1-297 and IE1-316 peptides are presented by the MHC molecule after immunization with or exposure to CMV in HLA A*0201 subjects. In summary, IE1-297, IE1-316 and IE1-256 are peptides that stimulate CD8 human cells (Table I).

[5] = tested on: CD8+ peripheral blood lymphocytes; experiment: ICC/IFN-γ assay, cryopreserved PBL of HLA-A2 HCT subjects; conditions: CMV reactivation
Protocol: Five CMV seropositive HLA A2 human subjects showing CMV reactivation within 100 days post hematopoietic cell transplantation (HCT) and 6 CMV seropositive subjects without CMV reactivation were followed at days 40, 90, 120, 150, 180 and 360 post HCT. The intracellular IFN-γ response (ICC) to CMVpp65p495-503, CMV-IE1-256, IE1-297 and IE1-316 and the CD8 MHC/peptide binding (tetramer assay) using CMVpp65p495-503, IE1-297 and IE1-316 were analyzed in two groups.
Eleven HLA A*0201 HCT recipients, at risk for CMV infection because of donor and/or recipient CMV-seropositivity, were enrolled in this study. The subjects included related sibling donors and recipients of allogeneic HCT for hematologic malignancies as well as HCT recipients of matched unrelated donor (MUD).
Peripheral blood mononuclear cells (PBMC) from heparin-treated whole blood were isolated using Histopaque™-1077 density gradients, washed with 1× phosphate-buffered saline (PBS) and cryopreserved in aliquots of 3×10^6 to 5×10^6 cells/mL in 90% fetal bovine serum (FBS) and 10% dimethylsulfoxide. The plasma was collected by centrifugation, filtered through 0.45 μm Acrodisc™ filters and stored at −20° C. until DNA extraction.
Donor samples (except for MUD subjects) were drawn before administration of granulocyte-colony stimulating factor (G-CSF) and later at the time of harvest. Recipient blood samples were collected at day 40, 90, 120, 150, 180 and 360 post-transplant for ICC and tetramer binding assays, and the CMV reactivation was monitored starting at day 21 post-HCT and twice weekly until day 100 using a shell vial assay and quantitative PCR.
To evaluate the immune reactivity to CMV in HLA-A2 subjects, cryopreserved peripheral blood lymphocytes (PBL) from the subjects were stimulated with peptides derived from CMV-pp65 and CMV-IE1 proteins. […] The positive stimulation control contained phytohemagglutinin (PHA) and the negative control contained HIV peptide.
After 1 hour incubation at 37° C. in 5% CO2, 1 μL (stock 5 mg/mL) of Brefeldin A, a cytokine secretion inhibitor, was added to the cells and further incubated overnight. Samples were then washed with 1×PBS and 0.5% bovine serum albumin and stained for 20 minutes in the dark with 5 μL of anti-CD8 antibody conjugated to streptavidin-phycoerythrin (CD8-PE). The cells were fixed and permeabilized for 20 minutes using the Cytofix/Cytoperm Kit™ (Pharmingen™) and stained for 30 minutes at 4° C. in the dark with 1 μL of anti-IFN-γ conjugated with streptavidin-allophycocyanin (APC).
After purification, the peptides were dissolved in 10% DMSO/water to a concentration of 5 mM and used at a final concentration of 25 μM for T cell stimulation. […] The latter two peptides served as a positive and negative control, respectively.
For FACS, patient cell samples were washed twice with 1× Cytofix™ Wash Solution for analysis by fluorescence-activated cell sorting using a FACScalibur™ instrument. The lymphocytes were gated based on forward and side scatter. A minimum of 50,000 events were analyzed per sample. The reported data are the values obtained after subtraction of background levels acquired with HIV peptide stimulation (which ranged from 0.0% to 0.5%).

[6] = tested on: CD8 cells; experiment: Intracellular cytokine (ICC) IFN-γ assay, fresh blood from CMV seropositive stem cell transplantation subjects; assay type: cell-based, human
Protocol: Having identified IE1-297 peptide as an important epitope in the process of CTL response to CMV-IE1 immunization in A2 transgenic mice, this peptide was tested to determine if it was recognized by CD8 cells from CMV seropositive human subjects. Fresh whole blood samples were collected from four individuals susceptible to CMV reactivation 40, 120, 150 and 180 days after stem cell transplantation. Frozen white blood cells from the human subjects were stimulated for 6 hours with 100 μM IE1-297, pp65(p495) or HIV peptide (negative control) and PHA (positive control). The cells then were stained to detect CD8 and IFN-γ production. Four patient samples were analyzed by cytokine flow cytometry.

[7] = T2 cells, 100 μM peptide, 18 hours
[8] = fluorescence compared to the mean of no peptide and HLA mismatch B7 peptide, 100 μM peptide

For “ILGADPLRV (listed as Human cytomegalovirus) [IE1-355]”, the “Stimulatory grade, C: Frankenberg et al. 2002 (IVS4)” value (“Stimulatory grade, C” for short) [1] is given as “(p10) poor” and the “Stimulatory grade, B: Khan et al. 2002 (ELISPOT)” value (“Stimulatory grade, B” below) [2] is given as “neg”.

For “LLSEFCRV (LLSEFCRVL; listed as Human cytomegalovirus) [IE1-304]”, the “Stimulatory grade, C” value [1] is given as “(p4) neg”, the “Stimulatory grade, B” value [2] is given as “neg” and the peak channel [3, 7] is given as 433. For the same substance, the “Fold Increase” value [3, 8] was 1.8 fold and the “Stimulatory grade, A: Present Report” value [4] was “neg”.

For “RPHERNGFTVL (listed as Human cytomegalovirus) [CMVB7-265]”, the peak channel [3, 7] was 261 and the “Fold Increase” value [3, 8] was 1 fold.

For “SLLSEFCRV (listed as Human cytomegalovirus) [IE1-303]”, the “Stimulatory grade, C” value [1] is given as “(p9) poor” and the “Stimulatory grade, B” value [2] is given as “neg”.

In the case of TPRVTGGGAM [CMVB7-417], the “Fold Increase” value [3] is reported as 1 fold and the peak channel [3] is reported as 232.

In the case of “VLAELVKQI (listed as Human cytomegalovirus) [IE1-81]”, the “Stimulatory grade, C” value [1] is listed as “(p2) neg”, the “Stimulatory grade, B” value [2] is listed as “neg” and the peak channel [3, 7] is listed as 495. For the same substance, the “Fold Increase” value [3, 8] was 2 fold and the “Stimulatory grade, A: Present Report” value [4] was “neg”.

For “YVLEETSVM (listed as Human cytomegalovirus) [IE1-315]”, the “subjects recognizing the peptide in IFN-γ elispot” value ([2]; out of 18 subjects, Khan et al.) is given as “one subject out of 18”.

In the case of phytohemagglutinin [PHA], the “% CD8+/IFN-γ+ after peptide stimulation” value ([5]; Subj. 54, Day 40 post-HCT) is reported as 0.54%, the “% CD8+/IFN-γ+ after peptide stimulation” value ([5]; Subj. 54, Day 90 post-HCT) is reported as 5.34% and the “% CD8+/IFN-γ+ after peptide stimulation” value ([5]; Subj. 54, Day 150 post-HCT) is reported as 1.78%. The “% CD8+/IFN-γ+ after peptide stimulation” value ([5]; Subj. 54, Day 180 post-HCT) was 4.27%, the “% CD8+/IFN-γ+ after peptide stimulation” value ([5]; Subj. 54, Day 360 post-HCT) was 6.91% and the “% CD8+/IFN-γ+ after peptide stimulation” value ([5]; Subj. 70(D) donor, postG) was 0.63%. For the same substance, the “% CD8+/IFN-γ+ after peptide stimulation” value ([5]; Subj. 70(D) donor, preG) was 0.24%, the “% CD8+/IFN-γ+ after peptide stimulation” value ([5]; Subj. 70, Day 40 post-HCT) was 0.64% and the “% CD8+/IFN-γ+ after peptide stimulation” value ([5]; Subj. 70, Day 90 post-HCT) was 5.09%. For the same substance, the “% CD8+/IFN-γ+ after peptide stimulation” value ([5]; Subj. 70, Day 120 post-HCT) was 4.01%, the “% CD8+/IFN-γ+ after peptide stimulation” value ([5]; Subj. 70, Day 150 post-HCT) was 2.44% and the “% CD8+/IFN-γ+ after peptide stimulation” value ([5]; Subj. 70, Day 180 post-HCT) was 2.88%. For the same substance, the “% CD8+/IFN-γ+ after peptide stimulation” value ([5]; Subj. 70, Day 360 post-HCT) was 3.5%, the “% CD8+/IFN-γ+ after peptide stimulation” value ([5]; Subj. 93(D) donor, postG) was 6.08% and the “% CD8+/IFN-γ+ after peptide stimulation” value ([5]; Subj. 93(D) donor, preG) was 2.08%. For the same substance, the “% CD8+/IFN-γ+ after peptide stimulation” value ([5]; Subj. 93, Day 40 post-HCT) was 6.32%, the “% CD8+/IFN-γ+ after peptide stimulation” value ([5]; Subj. 93, Day 120 post-HCT) was 12.46% and the “% CD8+/IFN-γ+ after peptide stimulation” value ([5]; Subj. 93, Day 150 post-HCT) was 21.01%. For the same substance, the “% CD8+/IFN-γ+ after peptide stimulation” value ([5]; Subj. 93, Day 360 post-HCT) was 16.5%, the “% CD8+/IFN-γ+ after peptide stimulation” value ([5]; Subj. 94, Day 40 post-HCT) was 23.17% and the “% CD8+/IFN-γ+ after peptide stimulation” value ([5]; Subj. 94, Day 90 post-HCT) was 21.58%. The “% CD8+/IFN-γ+ after peptide stimulation” value ([5]; Subj. 94, Day 120 post-HCT) was 14.53%, the “% CD8+/IFN-γ+ after peptide stimulation” value ([5]; Subj. 94, Day 150 post-HCT) was 15.03% and the “% CD8+/IFN-γ+ after peptide stimulation” value ([5]; Subj. 94, Day 180 post-HCT) was 29.1%. For the same substance, the “% CD8+/IFN-γ+ after peptide stimulation” value ([5]; Subj. 94, Day 360 post-HCT) was 20.21%, the “% CD8+/IFN-γ+ after peptide stimulation” value ([5]; Subj. 105(D) donor, postG) was 5.3% and the “% CD8+/IFN-γ+ after peptide stimulation” value ([5]; Subj. 105, Day 40 post-HCT) was 11.56%. The “% CD8+/IFN-γ+ after peptide stimulation” value ([5]; Subj. 105, Day 90 post-HCT) was 40.76%, the “% CD8+/IFN-γ+ after peptide stimulation” value ([5]; Subj. 105, Day 120 post-HCT) was 29.38% and the “% CD8+/IFN-γ+ after peptide stimulation” value ([5]; Subj. 105, Day 150 post-HCT) was 26.14%. The “% CD8+/IFN-γ” value ([6]; Patient No. 70, 150 days post-transplant) was under 33.15%, the “% CD8+/IFN-γ” value ([6]; Patient No. 70, 180 days post-transplant) was 19.2% and the “% CD8+/IFN-γ” value ([6]; Patient No. 93, 120 days post-transplant) was 37.6%. For the same substance, the “% CD8+/IFN-γ” value ([6]; Patient No. 100, 40 days post-transplant) was 2.09%.
